Series [1] can be described thus: DIP (propofol) formation by hydrolysis at accelerated stability conditions as a function of pH. The class given is physicochemical. The settings on record: for DIP formation: 40° C./75% RH. An excerpt: This example illustrates that the degradation of O-phosphonooxymethyl propofol is pH dependent. In particular, higher pH conditions generally result in lower rates of hydrolysis (degradation) of the prodrug, while lower pH conditions increase the rate of hydrolysis. […]

Series [2] is described as follows: Water solubility. The format is physicochemical. The settings on record: degradation products of the prodrug.
The conditions of series [3]: background statement; cited from earlier work.
The conditions of series [4]: anesthetic induction doses; cited from earlier work.
The conditions of series [5]: commercially available formulations; cited from earlier work.

Like-named read-outs stand apart in the source and are kept apart here.

Results on 4 compounds are retold here after patent US20100311698A1, “AQUEOUS BASED PHARMACEUTICAL FORMULATIONS OF WATER-SOLUABLE PRODRUGS OF PROPOFOL” (EISAI C[…] NORTH AMERICA, priority 2006, published 2010).

As to `CC(C)c1cccc(C(C)C)c1OCOP(=O)(O)O` [O-phosphonooxymethyl propofol, O-phosphonooxymethyl-propofol], the DIP formation amounted to 1.22 % w/v in series [1] (pH 6.9, 1 month); 1.90 % w/v in series [1] (pH 6.9, 3 months); 3.47 % w/v in series [1] (pH 6.9, 6 months); 0.83 % w/v in series [1] (pH 7.4, 1 month); 0.67 % w/v in series [1] (pH 7.4, 3 months); 2.14 % w/v in series [1] (pH 7.4, 6 months). For the same compound, the DIP formation in series [1] (pH 8.0, 1 month) came out at 0.32 % w/v; in series [1] (pH 8.0, 3 months), 0.76 % w/v; in series [1] (pH 8.0, 6 months), 0.72 % w/v; in series [1] (pH 8.5, 1 month), 0.15 % w/v; in series [1] (pH 8.5, 3 months), 0.41 % w/v; in series [1] (pH 8.5, 6 months) it was 0.73 % w/v. The DIP formation in series [1] (pH 9.1, 3 months) is 0.12 % w/v; in series [1] (pH 9.1, 6 months), 0.22 % w/v; in series [1] (pH 9.9, 6 months), 0.09 % w/v. For the same compound, the Amount of hydrolysis entry in series [1] (pH of about 9-9.5, 40° C., 75% RH) was “least amount of hydrolysis”.

On to `Oc1ccc(O)cc1` [hydroquinone], for which the Water solubility result in series [2] is “poorly water-soluble”.

In the case of `CC(C)c1cccc(C(C)C)c1O` [propofol], the Water solubility result in series [3] is reported as “poorly water soluble”; in series [2] it was “poorly water-soluble”. In series [4], the “Respiratory consequences, including a reduction in tidal volume and apnea” value is “up to 83 % of patients”. For the same compound, the Oral bioavailability entry in series [5] is on record as “very low”.

Consider quinone, for which the Water solubility result in series [2] is listed as “poorly water-soluble”.
